The assay concerns CEM cells HIV-1 protection, formazan growth assay. In words: NCI AIDS Antiviral Assay. Particulars: for IC50: measured here: growth of uninfected CEM cells. The method, boiled down: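 Protection of CEM cells against HIV-1 measured as cell growth via soluble formazan read-out, with five concentrations tested on both infected and uninfected cells; failure to protect may reflect toxicity.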

One may read the EC50 as the concentration at which the effect is half-maximal. Usually IC50 stands for the concentration that gives 50% inhibition. A lower IC50 goes with greater potency in that assay.

Several values for one entry are separate records, joined by “and”; a condition that tells them apart may be missing. Equal values may be shown once. Activity calls are given as the source filed them.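 The calls were made as follows: active = compounds giving half or more protection of infected cells from virus-caused growth loss, again on retest; inactive = the rest.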

With `S=c1[nH]c(=S)c2[nH]cnc2[nH]1`, the EC50 is above 200 µM and the IC50 amounted to 85.1 µM.

For the compound `COc1c(-c2ccccc2)oc2c(ccc3occc32)c1=O`, the EC50 is above 95.5 µM and the IC50 is above 95.5 µM.

Consider `O=S(=O)(SSS(=O)(=O)c1ccccc1)c1ccccc1`, for which the EC50 is above 75.9 µM and the IC50 was above 75.9 µM.

`C=C(Br)C[N+]12CN3CN(CN(C3)C1)C2`: the EC50 is above 200 µM and the IC50 is 55 µM.

Take `CC(=O)Oc1c2oc3ccc(Cl)cc3c(=O)c2c(O)c2ccsc12`: the EC50 is above 200 µM and the IC50 is above 200 µM.

`C[C@@]1(O)CC[C@]2(C)C3CCCC3[C@H]12` (some centres not stated): the result was inactive.

As for `CN(C)c1ccc(/C=C(\C#N)c2cccc(Br)c2)cc1`, the EC50 was above 200 µM and the IC50 was found to be 0.0631 µM.

For `CC(C)CCCC(C)[C@H]1CC[C@H]2[C@@H]3CC[C@H]4C[C@@H](CCC=C(c5cc(Cl)c(OCc6ccc(CC(=O)O)cc6)c(C(=O)O)c5)c5cc(Cl)c(OCc6ccc(CC(=O)O)cc6)c(C(=O)O)c5)CC[C@]4(C)[C@H]3CC[C@]12C` (some centres not stated), the EC50 is 1.7 µM and 1.41 µM; the IC50 is 115 µM and 20 µM.

As to `CC1(C)C(CBr)=[N+]([O-])C(C)(C)N1O`, the EC50 was above 200 µM and the IC50 was determined as 3.72 µM.

With `CC1(C)CC(=O)c2c(nc(SSc3nc4c(c(-c5ccc(Br)cc5)c3C#N)C(=O)CC(C)(C)C4)c(C#N)c2-c2ccc(Br)cc2)C1`, the EC50 was 18.6 µM and the IC50 was determined as 162 µM.

With `COc1cc(CO)c(C2OC(CO)C(O)C2O)c(OC)c1` (configuration not stated), the result was inactive.

Consider `O=C1C2N=NN(c3ccccc3)C2C(=O)N1c1ccccc1` (configuration not stated), for which the EC50 is 41.7 µM and the IC50 is above 200 µM.

For `CC1CC/C(=C\c2ccc(F)cc2)C2=C1C(c1ccc(F)cc1)NC(=S)N2` (configuration not stated), the EC50 was above 200 µM and the IC50 came to 16.6 µM.

As for `CCOC(=O)/C=C/CCCC(N1CCCC1)n1nnc2ccccc21` (configuration not stated), the EC50 was above 200 µM and the IC50 was 3.31 µM.

`O=C(O/N=C1/CCCC/C1=C\c1ccccc1)c1ccc(Cl)c(Cl)c1`: the outcome was inactive.

Take `CSC(=N/N=C(\C)c1ccc(S(=O)(=O)N(C)c2ccccc2)cc1)SC`: the EC50 is above 200 µM and the IC50 was found to be 14.8 µM.

Consider `COc1ccc(/C=C2\CCOC2=O)cc1OC`, for which the EC50 was above 776 µM and the IC50 worked out at 282 µM.

In the case of `CCCCCCCCCCCCCCCCCCNc1nc(=O)n(C2CC(OC(C)=O)C(COP(=O)(O)OCC3CCC(n4ccc(NC(=O)CCCCCCCCCCCCCCC)nc4=O)O3)O2)cc1F` (configuration not stated), the EC50 is 10 µM and the IC50 worked out at 44.7 µM.

As to `CN(C)c1n/c(=N/c2ncn[nH]2)ss1`, the outcome was inactive.

For the compound `CCCCCCC[CH2][Sn]1([CH2]CCCCCCC)[O]C(=O)c2cccnc2[O]1`, the EC50 was above 7.41 µM and the IC50 was above 7.41 µM.

For `NCCSSc1ccc([N+](=O)[O-])cc1`, the outcome was inactive.

For the compound `O=C1CN(/C=C(\c2ccccc2)S(=O)Cc2ccccc2)C(=S)N1` (configuration not stated), the EC50 was above 200 µM and the IC50 was above 200 µM.

For `CN(C)N1C(=O)S/C(=C\c2ccc([N+](=O)[O-])cc2)C1=O`, the EC50 was above 200 µM and the IC50 is above 200 µM.

For `N#Cc1c(N)c(-c2ccc(Cl)cc2)c(F)c2ccccc12`, the EC50 was 178 µM and the IC50 is above 200 µM.

Regarding `O=c1cc(CCc2ccccc2)oc2c(O)ccc(O)c12`, the outcome was inactive.

For `Cc1ccc(/C=N/Nc2ncccn2)s1`, the EC50 was above 200 µM and the IC50 is above 200 µM.

For the compound `O=C(c1ccccc1)C(c1ccccc1)C1(O)C(=O)Nc2c(Cl)cc(Cl)cc21` (configuration not stated), the EC50 is above 63.1 µM and the IC50 was above 63.1 µM.

Regarding `CCOC(=O)/C(=C/c1ccc(C)cc1)P(=O)(OCC)OCC`, the EC50 is 562 µM and the IC50 was 631 µM.

On to `COC(=O)CN(CC1O[C@@H]2OC(C)(C)O[C@@H]2C1N=[N+]=[N-])C(=O)OCc1ccccc1` (some centres not stated), for which the EC50 was above 200 µM and the IC50 is 20.9 µM.

The values are drawn from PubChem BioAssay AID179 (DTP/NCI, 2004).
